# Where two headings read alike, the source gives them in different places.
# How the values were obtained:
# PRMT3 = PRMT3 (Homo sapiens, UniProt O60678); assay: PRMT3 biochemical assay
# [1] = test system: 55 protein targets (47 GPCRs, five ion channels, and three transporters); assay: CEREP selectivity panel; assay type: binding; conditions: at 10 μM
# [2] = test system: 31 other lysine methyltransferases, arginine methyltransferases, and DNA and RNA methyltransferases; assay: Methyltransferase selectivity assays; assay type: biochemical; conditions: compound concentrations of 1, 5, and 20 μM
# human Flag-tagged PRMT3 = human Flag-tagged PRMT3 (Homo sapiens, UniProt O60678); assay: Cellular PRMT3 assay; assay type: cell-based
# human Flag-tagged PRMT3, sequence (O60678 whole entry): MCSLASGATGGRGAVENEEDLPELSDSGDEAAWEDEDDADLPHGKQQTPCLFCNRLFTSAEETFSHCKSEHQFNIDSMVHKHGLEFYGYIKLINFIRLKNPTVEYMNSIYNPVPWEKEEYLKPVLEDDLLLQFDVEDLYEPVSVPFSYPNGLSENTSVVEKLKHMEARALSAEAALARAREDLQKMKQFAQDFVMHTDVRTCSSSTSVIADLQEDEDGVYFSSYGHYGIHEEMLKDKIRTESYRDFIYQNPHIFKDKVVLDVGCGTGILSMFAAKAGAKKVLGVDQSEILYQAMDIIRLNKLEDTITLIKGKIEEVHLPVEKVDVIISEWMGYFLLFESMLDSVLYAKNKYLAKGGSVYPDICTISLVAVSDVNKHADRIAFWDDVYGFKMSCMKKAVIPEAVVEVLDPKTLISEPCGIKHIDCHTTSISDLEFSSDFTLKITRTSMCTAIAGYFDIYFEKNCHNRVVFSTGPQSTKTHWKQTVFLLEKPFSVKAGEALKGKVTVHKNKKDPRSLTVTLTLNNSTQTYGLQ
# PRMT3, sequence (O60678 whole entry): as above
selectivity for PRMT3 over 31 other methyltransferases (in words) [2],Compound,% of inhibition (off-target activities) [1] [%],further results
–,"CN1CCN(C(=O)CNC(=O)Nc2ccc3cnccc3c2)CC1 [Compound 18, 1-(Isoquinolin-6-yl)-3-(2-(4-methylpiperazin-1-yl)-2-oxoethyl)urea]",–,PRMT3 inhibitory activity (in words) (PRMT3; PRMT3 biochemical assay): loss of the inhibitory activity
–,"CON(C)C(=O)CNC(=O)Nc1ccc2cnccc2c1 [Compound 22, 2-(3-(Isoquinolin-6-yl)ureido)-N-methoxy-N-methylacetamide]",–,fold less potent than 5 (PRMT3; PRMT3 IC50 relative to compound 5): around 6 fold
highly selective for PRMT3,"O=C(NCC(=O)N1CC(F)(F)C(F)(F)C1)Nc1ccc2cnccc2c1 [Compound 29, 1-(Isoquinolin-6-yl)-3-(2-oxo-2-(3,3,4,4-tetrafluoropyrrolidin-1-yl)ethyl)urea]",< 50,"effect on H4R3me2a levels (in words) (human Flag-tagged PRMT3; 1 μM compound, compared with catalytically dead PRMT3 mutant E335Q): matched with that of the catalytically dead PRMT3 mutant E335Q"
–,"CC1CCC(C)N1C(=O)CNC(=O)Nc1ccc2cnccc2c1 (stereo not drawn) [Compound 30, 1-(2-(2,5-Dimethylpyrrolidin-1-yl)-2-oxoethyl)-3-(isoquinolin-6-yl)urea]",< 50,–
highly selective for PRMT3,"O=C(NCC(=O)N1CCCC1)Nc1cc2ccncc2cc1F [Compound 36, 1-(7-Fluoroisoquinolin-6-yl)-3-(2-oxo-2-(pyrrolidin-1-yl)ethyl)urea]",< 50,effect on H4R3me2a levels (in words) (human Flag-tagged PRMT3): matched with that of the catalytically dead PRMT3 mutant E335Q

# Reference: PMC5808361 (Journal of Medicinal Chemistry, 2017)
